IC50 data for 8 molecules are collected here from BindingDB's records for PubMed 35063895 (Tokyo Medical and Dental University, 2022).

SMILES strings stand for the structures. “And” between values parts separate entries of the source, which are not always exact repeats. Equal entries are not always repeated.

By IC50 is commonly meant the point on the concentration scale where inhibition reaches its midpoint.

The assay is described as follows: CD4 mimetic activity at gp120 in HIV-1 KP-5mvcR infected in human TZM-bl cells assessed as inhibition of viral entry by measuring reduction in RLU by single round assay.
For the molecule `CC1(C)CC(NC(=O)C(=O)Nc2ccc(Cl)cc2)CC(C)(C)N1` [N-(4-chlorophenyl)-N'-(2,2,6,6-tetramethylpiperidin-4-yl)-oxalamide], the 50% inhibitory concentration (IC50) was found to be 0.27 µM. As for `N=C(N)NCCCCC(=O)NCCN1CCC(NC(=O)C(=O)Nc2ccc(Cl)cn2)CC1`, the half-inhibitory concentration (IC50) is more than 100 µM. The figure for `N=C(N)NCCCCC(=O)NCCN1CCC(NC(=O)C(=O)Nc2cncc(F)c2)CC12CCCCC2` (stereo not drawn) is more than 100 µM; for `COCCOCCOCCOCCOCCOCCOCCOCCOCCOCCOCCOCCNC(=O)CCC(=O)N[C@@H](CCCNC(=N)N)C(=O)NCCN1CCC(NC(=O)C(=O)Nc2ccc(F)nc2)CC12CCCCC2` (stereo partly drawn) it is more than 100 µM.

For `COCCOCCOCCOCCOCCOCCOCCOCCOCCOCCOCCOCCNC(=O)CCC(=O)N[C@@H](CCCNC(=N)N)C(=O)NCCN1CCC(NC(=O)C(=O)Nc2ccc(Cl)cc2)CC12CCCCC2` (stereo partly drawn), the IC50 is 6.7 µM. In the case of `N=C(N)NCCCCC(=O)NCCN1CCC(NC(=O)CNc2ccc(Cl)cn2)CC1`, the concentration for half-maximal inhibition (IC50) was more than 100 µM.

As for `CC1(C)CC(NC(=O)C(=O)Nc2ccc(F)nc2)CC(C)(C)N1`, the IC50 turned out to be 5.1 µM. With `N=C(N)NCCCCC(=O)NCCN1CCC(NC(=O)C(=O)Nc2ccc(Cl)cc2)CC12CCCCC2` (stereo not drawn), the IC50 is 0.29 µM and 1.5 µM.
